Data: patent US10654834B2 (Venenum Biodesign, LLC, priority 2016, dated 2020)

Assays:
human TGR5 receptor = biological target: T1, human TGR5 receptor (Homo sapiens, UniProt Q8TDU6); assay: Human TGR5 cAMP production assay (hTGR5-CHO cells, DiscoveRx cAMP XS+ kit); assay type: cell-based; conditions: luminescent cAMP assay, read-out: Human TGR5 Lum. cAMP Activity (EC50)
T1 construct: host or cells: CHO-K1 (hTGR5-CHO)
T1 sequence (Q8TDU6 1-330): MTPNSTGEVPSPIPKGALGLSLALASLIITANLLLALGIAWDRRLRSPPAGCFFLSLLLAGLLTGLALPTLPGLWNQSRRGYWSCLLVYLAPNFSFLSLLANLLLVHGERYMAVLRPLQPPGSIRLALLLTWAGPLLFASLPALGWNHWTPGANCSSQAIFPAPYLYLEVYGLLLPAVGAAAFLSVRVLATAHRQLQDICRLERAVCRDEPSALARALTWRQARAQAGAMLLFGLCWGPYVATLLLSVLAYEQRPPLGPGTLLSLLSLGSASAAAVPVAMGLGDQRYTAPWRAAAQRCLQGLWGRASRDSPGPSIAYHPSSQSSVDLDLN
How it was run: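 CHO-K1 cells stably expressing hTGR5, in PBS with IBMX and cAMP antibody, treated with half-log compound dilutions for 1 h at room temperature. cAMP measured by enzyme-fragment complementation luminescence after overnight detection; EC50 values reported.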

mouse TGR5 receptor = biological target: T2, mouse TGR5 receptor (Mus musculus, UniProt Q80SS6); assay: Mouse TGR5 luminescent cAMP production assay (HEK293-EBNA cells, DiscoveRx cAMP XS+ kit); assay type: cell-based; conditions: HEK293-EBNA cells overexpressing mouse TGR5, luminescent cAMP assay; read-out: Mouse TGR5 Lum. cAMP Activity (EC50)
T2 construct: host or cells: HEK293-EBNA (293 c18, ATCC CRL10852)
T2 sequence (Q80SS6 1-329): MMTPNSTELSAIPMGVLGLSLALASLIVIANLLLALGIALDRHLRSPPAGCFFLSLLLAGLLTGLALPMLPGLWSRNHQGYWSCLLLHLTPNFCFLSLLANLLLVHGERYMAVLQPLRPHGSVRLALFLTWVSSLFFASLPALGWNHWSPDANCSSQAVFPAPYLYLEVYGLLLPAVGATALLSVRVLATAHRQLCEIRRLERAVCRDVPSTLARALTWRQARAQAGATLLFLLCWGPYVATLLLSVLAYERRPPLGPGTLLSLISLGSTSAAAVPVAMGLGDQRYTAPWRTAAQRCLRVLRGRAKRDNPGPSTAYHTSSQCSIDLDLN
Method: Mouse TGR5 cAMP Production Assay
Compounds of the present invention were evaluated for their ability to induce cAMP production in HEK-EBNA cells overexpressing the mouse TGR5 receptor. Human embryonic kidney cells (HEK293-EBNA) stably expressing mouse TGR5 receptor were established using the following procedure. Specifically, a commercially obtained gene encoding mouse TGR5 (accession number BC116914) from Thermo Scientific (Waltham, Mass.) was cloned into an episomal expression vector. The resulting expression plasmid was then transfected into 293 c18 (ATCC® CRL10852™) cells, which express the Epstein-Barr virus nuclear antigen EBNA1 and can support the replication of episomal vectors. Selection for the plasmid was maintained with Hygromycin B. Cells were cultured and maintained in DMEM (Sigma; cat #6429) supplemented with 10% Fetal Bovine Serum, 1% penicillin/streptomycin, 2 mM L-alanine L-glutamine (GlutaMax), and 250 μg/mL Hygromycin.
We developed two cAMP production assays.
(i) Luminescent cAMP Production Assay
In this first cAMP production assay, the cAMP production was measured using DiscoveRx's cAMP XS+ kit following the manufacturer's recommended protocol. Briefly, HEK293-EBNA cells stably overexpressing mouse TGR5 were harvested using non-enzymatic cell dissociation buffer (Sigma-Aldrich, St. Louis, Mo.), spun down, then resuspended in serum-free DMEM with 500 μM IBMX at a density of 1.25×10^6 cells/mL. 500 μL of cAMP antibody solution was added to 500 μL of cell suspension and incubated at room temperature for 20 min.
Test compounds were serially diluted (half-log dilutions) in DMSO and then further diluted 1:50 in PBS, 10 mM HEPES buffer. 2 μL of serially diluted compound was added to a 384-well low volume plate (Greiner cat #784075) and centrifuged briefly. 2 μl of the cell/cAMP antibody mixture was then added to each compound-containing well and allowed to incubate at room temperature for one (1) hour. Following incubation, the XS+ kits' ED/Lysis/CL Substrate Working Solution was prepared following the manufacturer's recommended protocol and 4 μL was added to each well of the plate. The plate was then incubated for one (1) hour at room temperature. Following incubation, 4 μL of (Enzyme Acceptor) EA reagent was added to the plate and allowed to incubate overnight at room temperature. Luminescent signal was then detected using the Viewlux instrument (PerkinElmer, Waltham, Mass.).
In Table 52, EC50 values for both human and mouse cells were determined according to the TGR5 cAMP assays described above. […]

EC50 (human TGR5 receptor) [µM] | EC50 (mouse TGR5 receptor) [µM] | SMILES
0.1 to 0.999 | 0.1 to 0.999 | N#Cc1ccc(CCNC(=O)[C@@H]2CCCN2c2cc(-c3ccncc3F)nc(C(F)(F)F)n2)cc1 [Compound 155, (S)-N-(4-cyanophenethyl)-1-(6-(3-fluoropyridin-4-yl)-2-(trifluoromethyl)pyrimidin-4-yl)pyrrolidine-2-carboxamide]
1 to 30 | < 0.1 | COc1cnccc1-c1cc(N2CCC[C@H]2C(=O)NCCc2ccc(C#N)cc2)nc(C(F)(F)F)n1 [Compound 159, (S)-N-(4-cyanophenethyl)-1-(6-(3-methoxypyridin-4-yl)-2-(trifluoromethyl)pyrimidin-4-yl)pyrrolidine-2-carboxamide]
1 to 30 | < 0.1 | COc1cc(-c2cc(N3CCC[C@H]3C(=O)NCCc3ccc(C#N)cc3)nc(C(F)(F)F)n2)ccn1 [Compound 160, (S)-N-(4-cyanophenethyl)-1-(6-(2-methoxypyridin-4-yl)-2-(trifluoromethyl)pyrimidin-4-yl)pyrrolidine-2-carboxamide]
1 to 30 | 0.1 to 0.999 | N#Cc1ccc(CCNC(=O)[C@@H]2CCN2c2cc(-c3cccnc3)nc(C(F)(F)F)n2)cc1 [Compound 305, (S)-N-(4-cyanophenethyl)-1-(6-(pyridin-3-yl)-2-(trifluoromethyl)pyrimidin-4-yl)azetidine-2-carboxamide]
0.1 to 0.999 | 0.1 to 0.999 | N#Cc1ccc(CCNC(=O)[C@@H]2CCN2c2cc(-c3ccc(CO)cc3)nc(C(F)(F)F)n2)cc1 [Compound 304, (S)-N-(4-cyanophenethyl)-1-(6-(4-(hydroxymethyl)phenyl)-2-(trifluoromethyl)pyrimidin-4-yl)azetidine-2-carboxamide]
1 to 30 | 0.1 to 0.999 | CS(=O)(=O)Nc1cccc(-c2cc(N3CCC[C@H]3C(=O)NCCc3ccc(C#N)cc3)nc(C(F)(F)F)n2)c1 [Compound 153, (S)-N-(4-cyanophenethyl)-1-(6-(3-(methylsulfonamido)phenyl)-2-(trifluoromethyl)pyrimidin-4-yl)pyrrolidine-2-carboxamide]
0.1 to 0.999 | 0.1 to 0.999 | N#Cc1ccc(CCNC(=O)[C@@H]2CCCN2c2cc(-c3ccccn3)nc(C(F)(F)F)n2)cc1 [Compound 162, (S)-N-(4-cyanophenethyl)-1-(6-(pyridin-2-yl)-2-(trifluoromethyl)pyrimidin-4-yl)pyrrolidine-2-carboxamide]
1 to 30 | 0.1 to 0.999 | COc1ccc(Oc2cc(N3CCC[C@H]3C(=O)NCCc3ccc(C#N)cc3)nc(C(F)(F)F)n2)cc1 [Compound 44, (S)-N-(4-cyanophenethyl)-1-(6-(4-methoxyphenoxy)-2-(trifluoromethyl)pyrimidin-4-yl)pyrrolidine-2-carboxamide]
0.1 to 0.999 | < 0.1 | COc1ccc(-c2cc(N3CCC[C@H]3C(=O)NCCc3ccc(C#N)cc3)nc(C(F)(F)F)n2)cc1 [Compound 148, (S)-N-(4-cyanophenethyl)-1-(6-(4-methoxyphenyl)-2-(trifluoromethyl)pyrimidin-4-yl)pyrrolidine-2-carboxamide]

The next lines start with the compound.

SMILES | EC50 (human TGR5 receptor) [µM] | EC50 (mouse TGR5 receptor) [µM]
COCC1CCN(c2cc(N3CCC[C@@H](C(=O)NCCc4ccc(C#N)cc4)C3)nc(C(F)(F)F)n2)CC1 [Compound 310, (R)-N-(4-cyanophenethyl)-1-(6-(4-(methoxymethyl)piperidin-1-y1)-2-(trifluoromethyl)pyrimidin-4-yl)piperidine-3-carboxamide] | < 0.1 | 0.1 to 0.999
O=C(NCCc1ccc(C(F)(F)F)cc1)[C@@H]1CCCN(c2cc(NC3CCOCC3)nc(C(F)(F)F)n2)C1 [Compound 326, (R)-1-(6-((tetrahydro-2H-pyran-4-yl)amino)-2-(trifluoromethyl)-pyrimidin-4-yl)-N-(4-(trifluoromethyl)phenethyl)piperidine-3-carboxamide] | 0.1 to 0.999 | < 0.1
CC(C)(C)OC(=O)N1CCC(Oc2cc(N3CC[C@H]3C(=O)NCCc3ccc(C#N)cc3)nc(C(F)(F)F)n2)CC1 [Compound 243, (S)-tert-butyl 4-((6-(2-((4-cyanophenethyl)carbamoyl)azetidin-1-yl)-2-(trifluoromethyl)pyrimidin-4-yl)oxy)piperidine-1-carboxylate] | 0.1 to 0.999 | 0.1 to 0.999
CC(=O)N1CCC(Nc2cc(N3CCC[C@H]3C(=O)NCCc3ccc(C#N)cc3)nc(C(F)(F)F)n2)CC1 [Compound 53, (S)-1-(6-((1-acetylpiperidin-4-yl)amino)-2-(trifluoromethyl)pyrimidin-4-yl)-N-(4-cyanophenethyl)pyrrolidine-2-carboxamide] | 1 to 30 | < 0.1
CC(C)(C)OC(=O)N1CCC(Nc2cc(N3CCC[C@H]3C(=O)NCCc3ccc(C#N)cc3)nc(C(F)(F)F)n2)CC1 [Compound 15] | 1 to 30 | < 0.1
N#Cc1ccc(CCNC(=O)[C@@H]2C[C@@H](O)CN2c2cc(N3CCC(CO)CC3)nc(C(F)(F)F)n2)cc1 [Compound 211, (2S,4R)-N-(4-cyanophenethyl)-4-hydroxy-1-(6-(4-(hydroxymethyl)piperidin-1-yl)-2-(trifluoromethyl)pyrimidin-4-yl)pyrrolidine-2-carboxamide] | 0.1 to 0.999 | 0.1 to 0.999
COCC1CCN(c2cc(N3CC[C@H]3C(=O)NCCc3ccc(C#N)cc3)nc(C(F)(F)F)n2)CC1 [Compound 222, (S)-N-(4-cyanophenethyl)-1-(6-(4-(methoxymethyl)piperidin-1-yl)-2-(trifluoromethyl)pyrimidin-4-yl)azetidine-2-carboxamide] | < 0.1 | 0.1 to 0.999
O=C(NCCc1ccc(C(F)(F)F)cc1)[C@@H]1CCCN(c2cc(NCCN3CCOCC3)nc(C(F)(F)F)n2)C1 [Compound 325, (R)-1-(6-((2-morpholinoethyl)amino)-2-(trifluoromethyl)pyrimidin-4-yl)-N-(4-(trifluoromethyl)phenethyl)-piperidine-3-carboxamide] | 0.1 to 0.999 | < 0.1
O=C(NCCc1ccc(C(F)(F)F)cc1)[C@@H]1CCCN1c1cc(NCc2ccncc2)nc(C(F)(F)F)n1 [Compound 3] | 1 to 30 | 0.1 to 0.999
O=C(NCCc1ccc(C(F)(F)F)cc1)[C@@H]1CCCN1c1cc(-c2ccncc2)nc(C(F)(F)F)n1 [Compound 140, (S)-1-(6-(pyridin-4-yl)-2-(trifluoromethyl)pyrimidin-4-yl)-N-(4-(trifluoromethyl)phenethyl)pyrrolidine-2-carboxamide] | 0.1 to 0.999 | 0.1 to 0.999
COCC1CCN(c2cc(N3CCC[C@H]3C(=O)NCCc3ccc(C(F)(F)F)cc3)nc(C(F)(F)F)n2)CC1 [Compound 8] | < 0.1 | 0.1 to 0.999
N[C@@H]1CC(C(=O)NCCc2ccc(C(F)(F)F)cc2)N(c2cc(N3CCC(CO)CC3)nc(C(F)(F)F)n2)C1 (stereo partly drawn) [Compound 218, (4R)-4-amino-1-(6-(4-(hydroxymethyl)piperidin-1-yl)-2-(trifluoromethyl)pyrimidin-4-yl)-N-(4-(trifluoromethyl)phenethyl)pyrrolidine-2-carboxamide] | 1 to 30 | 0.1 to 0.999
